We go through four compounds from patent US20250084039A1, “4-SUBSTITUTED AMINOISOQUINOLINE DERIVATIVES” (Purdue Research Foundation, priority 2016, published 2025).

The subject of one test is STAT5 phosphorylation. The experiment in a line: Western blot in MV4-11. The class given is cell-based, human. Here is the method: Effect of HSW630-1 on protein expression was tested in the MV4-11 leukemia cell line. Total protein extracts were prepared using RIPA buffer (SIGMA) supplemented with Complete Mini™ protease inhibitor and PHOStop™ phosphatase inhibitors (Roche). Equal amounts of proteins (up to 25 μg) were separated on 4-12% NuPAGE gels in 1×MOPS or 1×MES buffer (Invitrogen) and transferred onto PVDF membranes (Millipore). The membrane was blocked with 5% dry milk in 1×TBS/0.1% Tween 20 (TBST) for at least 1 h at room temperature and incubated with human specific primary antibodies: FLT3, Phospho-FLT3, c-Myc (Cell Signaling Technologies), KRAS (Santa Cruz), or mouse anti-β-actin (SIGMA) overnight at 4° C. The membrane was washed 3 times in TBST and incubated with a horseradish peroxidase-conjugated secondary anti-rabbit or anti-mouse antibody (Cell Signaling Technologies) for 1 h at room temperature. Blots were again washed and the signal was detected with SuperSignal West Femto Chemiluminescent Substrate (Pierce) and exposed to HyBlot CL® autoradiography film (Denville).
To determine if the phosphorylation of FLT3, SRC kinase and downstream effectors or kinases (such as STAT3 [44], STAT5 [45] and p-38 [46]) could be affected by the compounds. […] The level of SRC kinase increased over time (amount at the 48 h time point is greater than at the 6 and 24 h time points). Unfortunately the bands for the phosphorylated SRC kinase are blurred despite repeated attempts to get clearer bands. […] From the above Western analyses, it is confirmed that the proliferation inhibition of MV4-11 is due to the inhibition of FLT3 signaling axis.
Background: Immunoblotting shows a protein as a band on a membrane.

The next test concerns FLT3 phosphorylation. The test is described as follows: Western blot in MV4-11. In kind it is cell-based, human.
Test [1] concerns MV4-11. The experiment in a line: Activity against AML cell line MV4-11 (CellTiter-Blue, 72 h). The class given is cell-based. To be noted: Homo sapiens, MV4-11, 72 h; read-out: IC50 against MV4-11/uM. The essentials: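 Suspension cells seeded at 4000 per well, left overnight, then exposed to compound from 10 nM to 100 μM for 72 h. Viability by CellTiter-Blue resazurin fluorescence after 4 h (Ex 560, Em 590); IC50 from concentration-response.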
(Resazurin is reduced to fluorescent resorufin, in cell work by metabolically active cells.)

For another test, the target named is TRKC (Homo sapiens (Human), UniProt Q16288). The test is described as follows: Reaction Biology HotSpot kinase assay. In kind it is biochemical. To be noted: 500 nM compound, 100 μM radiolabeled ATP. The essentials:
(§1)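 Phosphotransfer from [γ-33P]ATP was quantified after filter binding on P81 paper. Conditions: 20 mM HEPES pH 7.5, 10 mM MgCl2, 0.1 mM Na3VO4, 2 mM DTT, 0.02 mg/mL BSA; ATP 100 μM final; 2 h at room temperature. Compound was dosed at 500 nM.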

For the next test, the target named is c-kit (Homo sapiens (Human), UniProt P10721). The test is described as follows: Reaction Biology HotSpot kinase assay. To be noted: 500 nM compound, 100 μM radiolabeled ATP. In kind it is biochemical. The essentials:
as §1

The test system of test [2] is MV4-11. The experiment in a line: Anti-proliferative effects in leukemia panel. In kind it is cell-based.
A further test concerns HL60. The experiment in a line: Anti-proliferative effects in leukemia panel. The class given is cell-based. To be noted: Homo sapiens, HL-60.
The next test has as its system K-562. The test is described as follows: Anti-proliferative effects in leukemia panel. In kind it is cell-based. To be noted: Homo sapiens, K562.
A further test concerns THP-1. The experiment in a line: Anti-proliferative effects in leukemia panel. The class given is cell-based. To be noted: Homo sapiens.
For test [3], the system named is MOLM14. The test is described as follows: Anti-proliferative effects in leukemia panel. The class given is cell-based.
For the next test, the system named is MV-4-11. The experiment in a line: Proliferation inhibition at single concentration (CellTiter-Blue). To be noted: 1 μM compound. The class given is cell-based.
The subject of test [4] is MV4-11. The test is described as follows: IC50 determination (proliferation assay, CellTiter-Blue). The class given is cell-based. Here is the method: (§2) Cell lines were seeded into 96-well plates the afternoon prior to treatment. Approximately 18 hours later, compounds were diluted in dimethyl sulfoxide (DMSO) and added to cells. Plates were incubated for 72 hours and cells viability determined with CellTiter-Blue Cell Viability Assay (Promega, Madison, WI). Plates were read after 4 additional hours of incubation at 37° C. using plate reader (Bio-Tek, Winooski. VT). Data was analyzed and graphed using GraphPad Prism Software (Graphpad. La Jolla, CA). […]

In test [5] the test system is MOLM14. The test is described as above. In kind it is cell-based. As for the experimental part:
as §2

The target of the next test is FLT3 ITD (Homo sapiens, UniProt P36888). The test is described as follows: DiscoverX Kd Elect binding. The text has this: (§3) Although the current drugs on the market or in clinical trials are relatively successful in killing the AML leukemia cells, they currently are unable to deal with secondary mutations that occur after TKI treatment, such as FLT3 ([…]).
Chain of FLT3 ITD (P36888 whole entry, looked up, change not shown): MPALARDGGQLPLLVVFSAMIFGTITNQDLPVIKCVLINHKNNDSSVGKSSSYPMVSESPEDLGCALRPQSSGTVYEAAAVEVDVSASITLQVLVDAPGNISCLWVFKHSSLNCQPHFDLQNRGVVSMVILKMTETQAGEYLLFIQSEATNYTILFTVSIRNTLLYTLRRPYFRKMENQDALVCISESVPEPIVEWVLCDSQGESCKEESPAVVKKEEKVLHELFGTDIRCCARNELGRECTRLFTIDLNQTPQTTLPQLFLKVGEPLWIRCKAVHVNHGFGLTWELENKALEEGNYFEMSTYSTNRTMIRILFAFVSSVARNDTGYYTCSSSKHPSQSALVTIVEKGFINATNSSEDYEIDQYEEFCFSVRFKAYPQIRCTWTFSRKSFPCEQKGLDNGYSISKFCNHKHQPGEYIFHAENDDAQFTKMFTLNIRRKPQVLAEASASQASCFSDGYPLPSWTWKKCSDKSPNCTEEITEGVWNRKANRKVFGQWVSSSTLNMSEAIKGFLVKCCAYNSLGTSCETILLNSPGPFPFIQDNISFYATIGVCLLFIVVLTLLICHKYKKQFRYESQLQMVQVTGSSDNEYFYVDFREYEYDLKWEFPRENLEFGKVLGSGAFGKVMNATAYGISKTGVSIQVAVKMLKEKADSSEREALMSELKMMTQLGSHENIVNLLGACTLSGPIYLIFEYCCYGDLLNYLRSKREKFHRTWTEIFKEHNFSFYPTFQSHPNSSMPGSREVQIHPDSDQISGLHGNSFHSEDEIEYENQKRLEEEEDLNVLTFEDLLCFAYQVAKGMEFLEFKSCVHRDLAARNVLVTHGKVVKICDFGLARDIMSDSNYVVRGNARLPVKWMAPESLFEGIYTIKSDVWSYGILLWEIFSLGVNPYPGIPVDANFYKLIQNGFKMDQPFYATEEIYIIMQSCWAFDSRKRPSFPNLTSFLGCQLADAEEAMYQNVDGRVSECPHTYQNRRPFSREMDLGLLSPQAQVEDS
The subject of a further test is HeLa. The experiment in a line: Proliferation inhibition at single concentration (CellTiter-Blue). The class given is cell-based. To be noted: 1 μM compound.
Another test concerns MCF-7. Described as above. The class given is cell-based. To be noted: 1 μM compound.
In another test the test system is HCT116. Described as above. The class given is cell-based. To be noted: 1 μM compound.
In test [6] the test system is MV4-11. The experiment in a line: IC50 proliferation assay (Alamar Blue, 72 h). The class given is cell-based. To be noted: read-out: IC50 (proliferation inhibition) Cell line - MV4-11. The essentials:
(§4)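 Cells seeded ~18 h before treatment with semi-serial compound dilutions made in DMSO then growth medium. After 72 h exposure, Alamar Blue added and read following 4 h further at 37 °C; IC50 for proliferation inhibition.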

In another test the test system is K562. The experiment in a line: IC50 proliferation assay (Alamar Blue, 72 h). In kind it is cell-based.
The next test addresses FGFR1 (Homo sapiens (Human), UniProt P11362). The experiment in a line: Reaction Biology HotSpot kinase assay. The class given is biochemical. To be noted: 500 nM compound. The essentials: as §1
A further test has as its target RET (Homo sapiens (Human), UniProt P07949). The test is described as follows: Reaction Biology HotSpot kinase assay. In kind it is biochemical. To be noted: 500 nM compound. The essentials: (§5)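 Compounds were screened at one concentration, 500 nM, in a radiometric kinase reaction. After a 20-minute preincubation with enzyme and substrate in pH 7.5 HEPES buffer (1% DMSO), the mixture received 100 μM ATP containing [γ-33P]ATP and was left 2 h at room temperature.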

The next test deals with c-Src (Homo sapiens (Human), UniProt P12931). The experiment in a line: Reaction Biology HotSpot kinase assay. In kind it is biochemical. To be noted: 500 nM compound. The essentials:
as §5

The next test has as its target FLT3 (Homo sapiens (Human), UniProt P36888). The experiment in a line: DiscoverX Kd Elect binding.
From the text: as §3
HCK is expressed more in human primary leukemic stem cells than in human normal hematopoietic stem cells. […] Other protein kinases such as SYK, BRAF, p38 (p38MAPK), PDGFRα/β, FGFR1, RET, FLT4, Tie2 have also been linked to leukemia. […] (Table 9). The inhibition of the Src-kinase family could be important clinically because these kinases are downstream of FLT3. In the event of FLT3 mutation, the inhibition of the Src-family kinases could still lead to proliferation inhibition.

The test system of another test is MiaPaca-2. The experiment in a line: IC50 proliferation assay (Alamar Blue, 72 h). The class given is cell-based. To be noted: Homo sapiens, MIA PaCa-2; read-out: IC50 MiaPaca-2 (pancreatic cell line). The essentials:
as §4

The test system of the next test is HLY-1. The experiment in a line: IC50 proliferation assay (Alamar Blue, 72 h). In kind it is cell-based. To be noted: read-out: IC50 HLY-1 (lymphoma cell line). The essentials: as §4
Another test concerns the target BTK (Homo sapiens (Human), UniProt Q06187). The test is described as follows: Reaction Biology HotSpot kinase assay. The class given is biochemical. To be noted: 500 nM compound; read-out: Percentage kinase inhibition BTK. The essentials:
as §5

In the next test the target is FLT3 (ITD, F691L) (Homo sapiens, UniProt P36888, F691L/ITD). The test is described as follows: DiscoverX Kd Elect binding. To be noted: read-out: Kd FLT3 (ITD, F691L).
Chain of FLT3 (ITD, F691L) (P36888 whole entry, looked up, stated change not applied): as the sequence (P36888 whole entry, looked up, change not shown) above
The subject of a further test is NCI H1703 (NSCLC). The test is described as follows: Activity against lung cancer cell line. The class given is cell-based.
For test [7], the system named is MV4-11. The experiment in a line: In vivo efficacy, NSG mice injected with MV4-11. To be noted: 25 mg/kg, three times per week, NSG mice with MV4-11. Here is the method: Method: Six week old female NSG mice were injected intravenously with 1×10^6 logarithmically growing MV4-11 cells expressing luciferase (MV4-11). Luciferase expressing leukemia cells were imaged using the IVIS Xenogen system (Perkin Elmer, Waltham MA). On day of imaging, mice are injected IP with 150 mg/kg luciferin (Perkin Elmer, Waltham, MA), anaesthetized and then placed in imaging chamber. Maximal luminescence is recorded and then averaged among each treatment group. Ten days post cell injection, mice were imaged and then sorted into groups so that leukemic burden was similar and dosing started. Mice were dosed either with vehicle (10% DMSO/10% Tween 20/80% saline) or 25 mg/kg of compounds three times per week for the duration of the experiment. Mice were weighed and observed five days per week and imaged once per week.

Structures are written as SMILES. Where two headings read alike, the source gives them in different places. A value given as a limit tells only on which side of the number the result lay.

Chain of c-Src (P12931 whole entry, looked up): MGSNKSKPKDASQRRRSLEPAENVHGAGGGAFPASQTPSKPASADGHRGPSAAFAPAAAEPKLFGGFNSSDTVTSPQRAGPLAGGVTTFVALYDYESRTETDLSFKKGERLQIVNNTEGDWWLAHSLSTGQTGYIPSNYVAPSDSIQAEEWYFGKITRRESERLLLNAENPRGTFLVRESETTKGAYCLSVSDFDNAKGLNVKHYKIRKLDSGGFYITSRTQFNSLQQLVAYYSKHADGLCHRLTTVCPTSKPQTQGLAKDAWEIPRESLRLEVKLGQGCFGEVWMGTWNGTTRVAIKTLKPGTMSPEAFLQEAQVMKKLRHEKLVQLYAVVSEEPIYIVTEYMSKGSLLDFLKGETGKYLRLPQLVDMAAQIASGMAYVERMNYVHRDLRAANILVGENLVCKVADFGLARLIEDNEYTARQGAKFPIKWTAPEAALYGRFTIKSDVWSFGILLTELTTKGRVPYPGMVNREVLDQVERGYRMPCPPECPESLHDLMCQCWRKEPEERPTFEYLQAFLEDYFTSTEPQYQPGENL
Chain of FGFR1 (P11362 22-822): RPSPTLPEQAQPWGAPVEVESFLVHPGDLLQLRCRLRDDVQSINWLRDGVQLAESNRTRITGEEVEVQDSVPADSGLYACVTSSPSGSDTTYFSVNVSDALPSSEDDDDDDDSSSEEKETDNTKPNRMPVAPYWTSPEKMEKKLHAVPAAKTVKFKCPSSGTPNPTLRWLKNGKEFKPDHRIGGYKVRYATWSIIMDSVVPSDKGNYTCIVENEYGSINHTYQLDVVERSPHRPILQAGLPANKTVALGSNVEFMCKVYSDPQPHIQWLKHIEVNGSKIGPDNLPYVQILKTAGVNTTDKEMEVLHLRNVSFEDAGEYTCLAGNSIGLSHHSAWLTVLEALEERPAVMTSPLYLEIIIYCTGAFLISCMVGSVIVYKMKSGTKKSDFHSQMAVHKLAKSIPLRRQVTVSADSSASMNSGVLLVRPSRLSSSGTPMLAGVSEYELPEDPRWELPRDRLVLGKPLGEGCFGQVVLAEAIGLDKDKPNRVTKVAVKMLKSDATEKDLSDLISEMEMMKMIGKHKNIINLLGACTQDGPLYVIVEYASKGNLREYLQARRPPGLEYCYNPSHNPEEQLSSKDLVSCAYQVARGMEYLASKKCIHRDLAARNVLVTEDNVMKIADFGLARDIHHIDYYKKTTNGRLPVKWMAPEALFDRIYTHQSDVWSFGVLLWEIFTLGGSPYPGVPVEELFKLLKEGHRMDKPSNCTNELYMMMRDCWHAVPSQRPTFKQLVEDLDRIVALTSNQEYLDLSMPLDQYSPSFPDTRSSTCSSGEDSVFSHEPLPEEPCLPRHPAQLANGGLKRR
Chain of BTK (Q06187 whole entry): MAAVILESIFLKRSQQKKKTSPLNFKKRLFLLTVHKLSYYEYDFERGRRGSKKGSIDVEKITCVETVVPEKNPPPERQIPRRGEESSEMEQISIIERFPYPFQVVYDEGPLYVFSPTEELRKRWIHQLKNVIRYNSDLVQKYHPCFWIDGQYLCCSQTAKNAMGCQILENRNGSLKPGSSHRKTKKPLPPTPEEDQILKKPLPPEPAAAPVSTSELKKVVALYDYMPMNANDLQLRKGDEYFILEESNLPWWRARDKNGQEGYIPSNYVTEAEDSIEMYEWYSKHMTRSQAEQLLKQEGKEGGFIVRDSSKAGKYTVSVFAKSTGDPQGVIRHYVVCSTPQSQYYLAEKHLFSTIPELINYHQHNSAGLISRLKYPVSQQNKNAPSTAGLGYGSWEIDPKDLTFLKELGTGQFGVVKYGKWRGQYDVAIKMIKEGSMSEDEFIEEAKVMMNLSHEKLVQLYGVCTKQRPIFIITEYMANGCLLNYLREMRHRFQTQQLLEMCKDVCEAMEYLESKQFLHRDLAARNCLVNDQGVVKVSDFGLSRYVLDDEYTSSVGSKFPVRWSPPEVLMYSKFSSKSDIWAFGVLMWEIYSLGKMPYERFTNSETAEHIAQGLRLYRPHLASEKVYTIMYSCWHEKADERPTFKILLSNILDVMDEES
Chain of RET (P07949 29-1114): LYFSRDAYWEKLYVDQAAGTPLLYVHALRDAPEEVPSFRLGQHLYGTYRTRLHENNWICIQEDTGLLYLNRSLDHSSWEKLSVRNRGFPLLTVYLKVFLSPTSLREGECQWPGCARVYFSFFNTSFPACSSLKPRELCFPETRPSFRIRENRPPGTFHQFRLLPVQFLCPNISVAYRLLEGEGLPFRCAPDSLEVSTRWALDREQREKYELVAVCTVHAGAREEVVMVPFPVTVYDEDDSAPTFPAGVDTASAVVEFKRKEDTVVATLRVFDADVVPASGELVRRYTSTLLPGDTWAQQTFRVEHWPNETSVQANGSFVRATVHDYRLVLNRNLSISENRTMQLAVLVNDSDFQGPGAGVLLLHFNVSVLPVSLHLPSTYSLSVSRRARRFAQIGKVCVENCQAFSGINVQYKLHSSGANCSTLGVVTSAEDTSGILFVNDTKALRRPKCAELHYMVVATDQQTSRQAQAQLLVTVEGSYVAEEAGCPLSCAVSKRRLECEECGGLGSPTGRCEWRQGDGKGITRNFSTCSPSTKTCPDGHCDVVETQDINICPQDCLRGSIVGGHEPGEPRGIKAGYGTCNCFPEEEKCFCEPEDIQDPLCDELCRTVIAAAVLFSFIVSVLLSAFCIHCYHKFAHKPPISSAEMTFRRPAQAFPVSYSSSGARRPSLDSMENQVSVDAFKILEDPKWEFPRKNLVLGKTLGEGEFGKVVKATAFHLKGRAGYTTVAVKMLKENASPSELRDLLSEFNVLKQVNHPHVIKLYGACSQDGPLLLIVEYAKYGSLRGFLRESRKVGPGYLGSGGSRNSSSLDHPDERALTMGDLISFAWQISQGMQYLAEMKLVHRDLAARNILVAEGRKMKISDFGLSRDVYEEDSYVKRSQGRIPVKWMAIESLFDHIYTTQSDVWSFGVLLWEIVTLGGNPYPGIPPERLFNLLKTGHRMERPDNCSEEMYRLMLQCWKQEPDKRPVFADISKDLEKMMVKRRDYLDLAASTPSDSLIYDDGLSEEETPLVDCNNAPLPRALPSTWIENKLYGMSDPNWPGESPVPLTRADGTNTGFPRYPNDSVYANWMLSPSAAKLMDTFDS
Chain of TRKC (Q16288 32-839): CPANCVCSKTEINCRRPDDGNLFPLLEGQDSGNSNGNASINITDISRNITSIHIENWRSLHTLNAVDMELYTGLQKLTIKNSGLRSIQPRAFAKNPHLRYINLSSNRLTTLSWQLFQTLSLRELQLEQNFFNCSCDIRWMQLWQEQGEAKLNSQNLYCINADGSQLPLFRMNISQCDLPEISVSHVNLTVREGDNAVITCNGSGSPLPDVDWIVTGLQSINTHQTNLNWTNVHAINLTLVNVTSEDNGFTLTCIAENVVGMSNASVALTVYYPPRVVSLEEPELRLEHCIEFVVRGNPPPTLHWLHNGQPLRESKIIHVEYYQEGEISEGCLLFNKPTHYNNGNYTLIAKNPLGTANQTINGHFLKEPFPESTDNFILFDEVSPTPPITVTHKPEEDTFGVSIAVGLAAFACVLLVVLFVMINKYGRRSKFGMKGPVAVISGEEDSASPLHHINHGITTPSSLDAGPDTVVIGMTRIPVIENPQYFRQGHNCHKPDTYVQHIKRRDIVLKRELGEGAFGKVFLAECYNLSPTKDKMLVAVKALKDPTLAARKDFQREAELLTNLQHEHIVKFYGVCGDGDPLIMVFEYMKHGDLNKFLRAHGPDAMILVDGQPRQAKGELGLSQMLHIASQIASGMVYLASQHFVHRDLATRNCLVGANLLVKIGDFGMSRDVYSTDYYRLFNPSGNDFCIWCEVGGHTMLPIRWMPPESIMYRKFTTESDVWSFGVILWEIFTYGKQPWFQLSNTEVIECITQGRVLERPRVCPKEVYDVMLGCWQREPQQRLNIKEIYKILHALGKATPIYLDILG
Method for FLT3 phosphorylation: Total protein extracts were prepared using RIPA buffer (SIGMA) supplemented with Complete Mini™ protease inhibitor and PHOStop™ phosphatase inhibitors (Roche). […] The membrane was blocked with 5% dry milk in 1×TBS/0.1% Tween 20 (TBST) for at least 1 h at room temperature and incubated with human specific primary antibodies: FLT3, Phospho-FLT3, c-Myc (Cell Signaling Technologies), KRAS (Santa Cruz), or mouse anti-β-actin (SIGMA) overnight at 4° C. The membrane was washed 3 times in TBST and incubated with a horseradish peroxidase-conjugated secondary anti-rabbit or anti-mouse antibody (Cell Signaling Technologies) for 1 h at room temperature. Blots were again washed and the signal was detected with SuperSignal West Femto Chemiluminescent Substrate (Pierce) and exposed to HyBlot CL® autoradiography film (Denville).

For `Nc1ncc2ccc(Cl)cc2c1C#Cc1ccc(C2=NCCN2)cc1` [HSM1651, 6-chloro-4-((4-(4,5-dihydro-1H-imidazol-2-yl)phenyl)ethynyl)isoquinolin-3-amine], the “STAT5 phosphorylation (Western)” value in the test on STAT5 phosphorylation is recorded as “reduced”. For the same compound, the “FLT3 phosphorylation (Western)” value with FLT3 phosphorylation is given as “reduced”. For the same compound, the IC50 in the test on MV4-11 [1] is 0.008 µM; with MV4-11 [2] (Homo sapiens, MV4-11, read-out: Anti-proliferative effects in leukemia panel (μM) MV4-11), 0.05 ± 0.01 µM; with HL60, 3.05 µM; with K-562, 1.39 µM; with THP-1 it was 1.85 µM; in the test with MOLM14 [3] (Homo sapiens, MOLM-14) it was 0.11 µM. Further, the inhibition – broadly, the relative decrease from the control value, in per cent – at 0.5 µM on TRKC stood at 64%; on c-kit, 83%. For the same compound, in the test with MV4-11 [2], the “anti-proliferative activity in words, MV4-11 / AML cell lines” value is given as “good inhibitor”. Also, the “anti-proliferative activity in words, MOLM-14” value in the test on MOLM14 [3] was “good inhibitor”.

For the compound `Cc1ccc(C(=O)NCC(O)CN(C)C)cc1C#Cc1c(N)ncc2ccc(Cl)cc12` (stereo not drawn) [HSN178], the “Percent inhibition of proliferation MV-4-11” value with MV-4-11 is 98%. Besides, the IC50 was 144 ± 2.6 nM in the test on MV4-11 [4]; 187 ± 5.5 nM in the test on MOLM14 [5]; 0.171 µM in the test with MV4-11 [6] (72 h); 1.44 µM in the test with K562 (72 h, read-out: IC50 (proliferation inhibition) Cell line - K562); 1.443 ± 0.00021 µM with K562 (Table 18, read-out: Inhibition of proliferation of K562 cell lines (CML)). Moreover, the “proliferation inhibition in words, MV4-11 / AML” value with MV4-11 [4] is on record as “only moderate inhibitors”. The Kd – broadly, the concentration at which binding is half-saturated – at FLT3 ITD was 0.45 µM; on FLT3, 0.053 µM. The “Percent inhibition of proliferation HeLa” value with HeLa is reported as 100%. The “Percent inhibition of proliferation MCF-7” value with MCF-7 amounted to 100%. The “Percent inhibition of proliferation HCT116” value in the test with HCT116 worked out at 97%. For the same compound, on FGFR1, the “Percentage kinase inhibition FGFR1” value turned out to be 3%. The “Percentage kinase inhibition RET” value at RET came out at 0%. For the same compound, the “Percentage kinase inhibition c-Src” value on c-Src was determined as 1%.

`CC1(C)CNC(c2ccc(C#Cc3cc(N)nc4ccccc34)cc2F)=N1` [HSM1856, 4-((4-(4,4-dimethyl-4,5-dihydro-1H-imidazol-2-yl)-3-fluorophenyl)ethynyl)quinolin-2-amine]: the IC50 with MiaPaca-2 came out at 0.4 µM; in the test with MV4-11 [6] (Homo sapiens, MV4-11, 72 h) it was 0.025 µM; with HLY-1, 0.08 µM. Besides, the inhibition at 0.5 µM at BTK came out at 70%.

Regarding `Cc1ncc(C(=O)Nc2ccc(CN3CCN(C)CC3)c(C(F)(F)F)c2)cc1C#Cc1c(N)ncc2ccc(F)cc12` [HSN431], the IC50 with MV4-11 [4] was < 1 nM; in the test on NCI H1703 (NSCLC), 247 nM. The equilibrium dissociation constant (Kd) at FLT3 ITD was 0.0048 µM; at FLT3 (ITD, F691L) it was 0.057 µM. Besides, the “in-vivo efficacy (survival)” value with MV4-11 [7] is given as “efficacious”.
